In general, IC50 refers to the concentration that gives 50% inhibition. A high value points to weaker potency in that assay.

Experimental findings from US20260200897A1, “4-((5-(3-(4-(PYRIDIN-2-YL)CYCLOPENTYL)-1H-PYRAZOL-3-YL)AMINO)-BENZENESULFONAMIDE DERIVATIVES AND SIMILAR COMPOUNDS AS CDK INHIBITORS FOR THE TREATMENT OF CANCER” (BeOne Medicines I GmbH, priority 2023, published 2026) are described below.

Structures are written as SMILES.

One assay deals with CDK2/Cyclin E1 (Homo sapiens, UniProt P24941). In words: CDK2/Cyclin E1 TR-FRET biochemical assay, 1 mM ATP. To be noted: 0.15 μM Rb (Ser780)-biotin substrate, 90 min reaction, Table 2. On the technique in general: In TR-FRET formats the signal depends on donor and acceptor labels being close together.
A further assay addresses CDK1/Cyclin B1 (Homo sapiens, UniProt P06493). As to the kind of experiment: CDK1/Cyclin B1 TR-FRET biochemical assay, 1 mM ATP. The following applies: 0.15 μM Rb (Ser780)-biotin substrate, 90 min reaction, Table 2.

Sequence of CDK1/Cyclin B1 (P06493 whole entry): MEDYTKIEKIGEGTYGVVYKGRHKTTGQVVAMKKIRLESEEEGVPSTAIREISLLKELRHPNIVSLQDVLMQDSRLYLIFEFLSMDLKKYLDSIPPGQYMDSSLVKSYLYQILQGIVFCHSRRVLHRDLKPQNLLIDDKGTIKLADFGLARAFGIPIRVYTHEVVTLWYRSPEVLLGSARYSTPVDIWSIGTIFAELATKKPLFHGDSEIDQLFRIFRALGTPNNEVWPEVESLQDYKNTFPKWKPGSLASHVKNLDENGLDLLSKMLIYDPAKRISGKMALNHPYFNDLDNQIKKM
Sequence of CDK1/Cyclin B1 (P14635 whole entry partner): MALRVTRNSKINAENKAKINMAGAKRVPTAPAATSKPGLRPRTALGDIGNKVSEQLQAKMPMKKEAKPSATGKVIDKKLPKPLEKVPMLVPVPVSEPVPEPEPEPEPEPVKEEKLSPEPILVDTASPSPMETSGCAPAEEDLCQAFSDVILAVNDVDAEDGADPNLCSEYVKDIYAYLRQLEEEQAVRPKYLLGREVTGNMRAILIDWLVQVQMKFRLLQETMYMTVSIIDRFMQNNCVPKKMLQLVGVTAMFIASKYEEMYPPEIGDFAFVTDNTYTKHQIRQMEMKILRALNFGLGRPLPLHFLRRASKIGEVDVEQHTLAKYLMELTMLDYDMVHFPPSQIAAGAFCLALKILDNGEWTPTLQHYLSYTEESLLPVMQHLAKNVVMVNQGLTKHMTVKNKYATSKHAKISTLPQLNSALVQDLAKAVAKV

As to `CC(C)(C)c1coc(C2CCC(c3cc(Nc4ccc5c(c4F)CS(=O)(=O)N5)n[nH]3)C2)n1` (centres unmarked) [Example 148, 5-((5-(3-(4-(tert-butyl)oxazol-2-yl)cyclopentyl)-1H-pyrazol-3-yl)amino)-4-fluoro-1,3-dihydrobenzo[c]isothiazole 2,2-dioxide], the IC50 on CDK2/Cyclin E1 was determined as 0.078 µM; on CDK1/Cyclin B1, 7.41 µM.
For `O=S1(=O)NCc2c1ccc(Nc1cc(C3CCC(c4cnc(C5CC5)o4)C3)[nH]n1)c2F` (centres unmarked) [Example 106, 5-((5-(3-(2-cyclopropyloxazol-5-yl)cyclopentyl)-1H-pyrazol-3-yl)amino)-4-fluoro-2,3-dihydrobenzo[d]isothiazole 1,1-dioxide] the same measures were 1.05 µM and more than 10 µM.
For `CC(C)(C)c1cnc(C2CCC(c3cc(Nc4cc5c(cc4F)S(=O)(=O)NC5)n[nH]3)C2)o1` (single isomer, unassigned) [Example 17d, 5-((5-(3-(5-(tert-butyl)oxazol-2-yl)cyclopentyl)-1H-pyrazol-3-yl)amino)-6-fluoro-2,3-dihydrobenzo[d]isothiazole 1,1-dioxide] the same measures were 2.87 µM and more than 10 µM.
For the compound `CC(C)(C)c1cn([C@@H]2CC[C@H](c3cc(Nc4ccc5c(c4F)CNS5(=O)=O)n[nH]3)C2)nn1` (relative stereo) [Example 90, cis-5-((5-(3-(4-(tert-butyl)-1H-1,2,3-triazol-1-yl)cyclopentyl)-1H-pyrazol-3-yl)amino)-4-fluoro-2,3-dihydrobenzo[d]isothiazole 1,1-dioxide], the IC50 on CDK2/Cyclin E1 was 3.31 µM; at CDK1/Cyclin B1, more than 10 µM.
For `CC(C)c1cnc(C2CCC(c3cc(Nc4ccc5c(c4)CS(=O)(=O)N5)n[nH]3)C2)o1` (single isomer, unassigned) [Example 138b, cis-5-((5-(3-(5-isopropyloxazol-2-yl)cyclopentyl)-1H-pyrazol-3-yl)amino)-1,3-dihydrobenzo[c]isothiazole 2,2-dioxide] the same measures were 0.012 µM and 2.42 µM.
For `CC(C)c1ccnc(C2CCC(c3cc(Nc4cc5c(cc4F)S(=O)(=O)NC5)n[nH]3)C2)n1` (centres unmarked) [Example 16, 6-fluoro-5-((5-(3-(4-isopropylpyrimidin-2-yl)cyclopentyl)-1H-pyrazol-3-yl)amino)-2,3-dihydrobenzo[d]isothiazole 1,1-dioxide] the same measures were 0.012 µM and 2.49 µM.
On the same counts, the results for `CC(C)(C)c1cccc(C2CCC(c3cc(Nc4ccc5c(c4F)CS(=O)(=O)N5)n[nH]3)C2)n1` (centres unmarked) [Example 158, 5-((5-(3-(6-(tert-butyl)pyridin-2-yl)cyclopentyl)-1H-pyrazol-3-yl)amino)-4-fluoro-1,3-dihydrobenzo[c]isothiazole 2,2-dioxide] are 0.084 µM and 3.93 µM.
On to `COc1cccc(C2CCC(c3cc(Nc4cc5c(cc4F)S(=O)(=O)NC5)n[nH]3)C2)n1` (centres unmarked) [Example 11, 6-fluoro-5-((5-(3-(6-methoxypyridin-2-yl)cyclopentyl)-1H-pyrazol-3-yl)amino)-2,3-dihydrobenzo[d]isothiazole 1,1-dioxide], for which the IC50 at CDK2/Cyclin E1 is 2.76 µM; on CDK1/Cyclin B1 it was more than 10 µM.
For `CC(C)(C)c1ccc([C@H]2CC[C@H](c3cc(Nc4ccc5c(c4F)CNS5(=O)=O)n[nH]3)C2)o1` (relative stereo) [Example 108, trans-5-((5-(3-(5-(tert-butyl)furan-2-yl)cyclopentyl)-1H-pyrazol-3-yl)amino)-4-fluoro-2,3-dihydrobenzo[d]isothiazole 1,1-dioxide] the same measures were 8.51 µM and more than 10 µM.
As to `CC(C)c1cnc(C2CCC(c3cc(Nc4cc5c(cc4F)S(=O)(=O)NC5)n[nH]3)C2)o1` (centres unmarked) [Example 18, 6-fluoro-5-((5-(3-(5-isopropyloxazol-2-yl)cyclopentyl)-1H-pyrazol-3-yl)amino)-2,3-dihydrobenzo[d]isothiazole 1,1-dioxide], the IC50 against CDK2/Cyclin E1 is 0.042 µM; on CDK1/Cyclin B1, more than 10 µM.
For `CC(C)c1cnc(C2CCC(c3cc(Nc4ccc5c(c4)CS(=O)(=O)N5)n[nH]3)C2)o1` (single isomer, unassigned) [Example 138a, cis-5-((5-(3-(5-isopropyloxazol-2-yl)cyclopentyl)-1H-pyrazol-3-yl)amino)-1,3-dihydrobenzo[c]isothiazole 2,2-dioxide] the same measures were 0.0018 µM and 0.16 µM.
On the same counts, the results for `CC(C)(C)c1coc(C2CCC(c3cc(Nc4ccc5c(c4F)CNS5(=O)=O)n[nH]3)C2)n1` (centres unmarked) [Example 94, 5-((5-(3-(4-(tert-butyl)oxazol-2-yl)cyclopentyl)-1H-pyrazol-3-yl)amino)-4-fluoro-2,3-dihydrobenzo[d]isothiazole 1,1-dioxide] are 0.417 µM and more than 10 µM.
With `CC(C)(O)Cn1cc(C2CCC(c3cc(Nc4ccc5c(c4F)CNS5(=O)=O)n[nH]3)C2)cn1` (centres unmarked) [Example 102, 4-fluoro-5-((5-(3-(1-(2-hydroxy-2-methylpropyl)-1H-pyrazol-4-yl)cyclopentyl)-1H-pyrazol-3-yl)amino)-2,3-dihydrobenzo[d]isothiazole 1,1-dioxide], the IC50 was 0.813 µM against CDK2/Cyclin E1 and more than 10 µM against CDK1/Cyclin B1.
With `CC(C)(C)c1ccc(C2CCC(c3cc(Nc4ccc5c(c4F)CS(=O)(=O)N5)n[nH]3)C2)o1` (centres unmarked) [Example 153, 5-((5-(3-(5-(tert-butyl)furan-2-yl)cyclopentyl)-1H-pyrazol-3-yl)amino)-4-fluoro-1,3-dihydrobenzo[c]isothiazole 2,2-dioxide], the IC50 was 1.02 µM on CDK2/Cyclin E1 and more than 10 µM at CDK1/Cyclin B1.
Take `CCOC(=O)c1nc(C2CCC(c3cc(Nc4ccc5c(c4F)CNS5(=O)=O)n[nH]3)C2)oc1C(C)C` (centres unmarked) [Example 115, ethyl 2-(3-(3-((4-fluoro-1,1-dioxido-2,3-dihydrobenzo[d]isothiazol-5-yl)amino)-1H-pyrazol-5-yl)cyclopentyl)-5-isopropyloxazole-4-carboxylate]: the half-maximal inhibitory concentration (IC50) is 0.264 µM on CDK2/Cyclin E1 and more than 10 µM against CDK1/Cyclin B1.
For the compound `CCc1ccnc(C2CCC(c3cc(Nc4ccc5c(c4F)CNS5(=O)=O)n[nH]3)C2)n1` (centres unmarked) [Example 125, 5-((5-(3-(4-ethylpyrimidin-2-yl)cyclopentyl)-1H-pyrazol-3-yl)amino)-4-fluoro-2,3-dihydrobenzo[d]isothiazole 1,1-dioxide], the IC50 came out at 0.04 µM at CDK2/Cyclin E1 and 2.76 µM against CDK1/Cyclin B1.
As to `CC(C)(C)c1ccnc(C2CCC(c3cc(Nc4ccc5c(c4F)CS(=O)(=O)N5)n[nH]3)C2)c1` (centres unmarked) [Example 155, 5-((5-(3-(4-(tert-butyl)pyridin-2-yl)cyclopentyl)-1H-pyrazol-3-yl)amino)-4-fluoro-1,3-dihydrobenzo[c]isothiazole 2,2-dioxide], the results for the half-maximal inhibitory concentration (IC50) on CDK2/Cyclin E1 and against CDK1/Cyclin B1 were 0.0046 µM and 0.685 µM, respectively.
For `CC(C)(C)c1cnc(C2CCC(c3cc(Nc4ccc5c(c4F)CN=S5(C)=O)n[nH]3)C2)o1` (centres unmarked) [Example 171, 5-((5-(3-(5-(tert-butyl)oxazol-2-yl)cyclopentyl)-1H-pyrazol-3-yl)amino)-4-fluoro-1-methyl-3H-1λ^4-benzo[d]isothiazole 1-oxide] the same measures were 0.002 µM and 0.348 µM.
For `CC(C)(C)c1cc(C2CCC(c3cc(Nc4ccc5c(c4F)CNS5(=O)=O)n[nH]3)C2)ccn1` (centres unmarked) [Example 129, 5-((5-(3-(2-(tert-butyl)pyridin-4-yl)cyclopentyl)-1H-pyrazol-3-yl)amino)-4-fluoro-2,3-dihydrobenzo[d]isothiazole 1,1-dioxide] the same measures were 8.02 µM and more than 10 µM.
